The values below come from US11191840B2, “Compositions and methods relating to salts of specialized pro-resolving mediators” (Thetis Pharmaceuticals LLC, priority 2017, dated 2021).

The test system of data set [1] is two-cycle DSS colitis model. The data set can be described thus: Two-cycle DSS colitis model, concomitant RvE1-Mg-di-lysinate and 5-ASA. The data set is classed as in vivo, mouse. The settings on record: once-daily, RvE1-Mg-Lys 1.5 ug/d, 5-ASA 625 ug/d, alone or combined; for Colon Length / Normalized Spleen Weight / Total Histopath Score: at sacrifice; for Disease Activity Index: terminal (Day 27). As for the experimental part: (§1) In the study described in Example 17, a sub-chronic model was used to induce colitis in 8-week old C57B16/J mice by two cycles of DSS separated by a 10-day recovery period. Once-daily RvE1-Mg-di-lysinate treatment (15 ug/day) was initiated on Day 20, after DSS-induced colitis was established, and continued for 7 days via oral gavage, with mice sacrificed at the end of Day 27. This sub-chronic, 2-cycle DSS protocol was used to induce inflammation with an immunological profile that better models human IBD than a single cycle of DSS. Oh S Y et al. Comparison of experimental mouse models of inflammatory bowel disease. Int J Mol Med. 2014; 33(2):333-40. This experimental system also provides a representative model for treating patients with active disease where the therapeutic objective is induction of remission. This is important in human IBD because most patients have recurring disease flares. In addition, this study compared RvE1-Mg-di-lysinate to 5-aminosalicylate (5-ASA), which is used as standard-of-care first-line therapy for induction and maintenance of remission in ulcerative colitis and also for certain phenotypes of Crohn's Disease.
(§2) Disease activity was assessed daily using the same Disease Activity Index (DAI) that was used in Example 16. Following sacrifice, colons were excised, flushed with ice-cold PBS, their lengths were measured. Subsequently, H&E-stained colon tissue sections from each animal were also scored using an established scoring system of histopathological disease activity. See Dieleman L A, Palmen M J, Akol H, et al. Chronic experimental colitis induced by dextran sulphate sodium (DSS) is characterized by Th1 and Th2 cytokines. Clin Exp Immunol. 1998; 114(3):385-91.
In this study, we again used the two-cycle DSS colitis model described above, but with once-daily concomitant therapy of RvE1-Mg-di-lysinate (1.5 ug/day) and 5-ASA (625 ug/day). This co-therapy model was used because many patients that would be candidates for RvE1-Mg-di-lysinate treatment will likely continue taking 5-ASA, as this is common clinical practice even when patient are not well controlled on 5-ASA monotherapy.

The nature of data set [2]: Chemical stability against degradation, HPLC, solid in open test tubes at room temperature. The data set is classed as physicochemical. The settings on record: open test tube, room temperature 68-72 F, relative humidity 20-40%. How it is done: The stability of selected SPMs and their ionic derivatives based on Formulas I and IV was evaluated. The parent SPM and its solid ionic derivative were place in open test tubes and maintained at room temperature between 68-72 F and relative humidity between 20-40% for 6 or 8 weeks. […] Briefly, HPLC analysis was performed on a PFP column (Poroshell 120, PFP, 4.6×150 mm, […], Agilent), mounted on a Gilson HPLC system equipped with an ELS detector. The mobile phase consisted of a gradient between solution A, water, and solution B, acetonitrile, both containing 0.1% trifluoroacetic acid. The gradient program was 30-80% with respect to solution B. The flow rate was 0.5 mL/min. The appearance of new HPLC peaks as compared to the baseline HPLC tracing at the initial time point is indicative of decomposition products and the lack of stability. The absence of such new HPLC peaks the subsequent time points is indicative of stability.

For data set [3], the system named is dextran sulfate sodium (DSS) mouse model of colitis. The data set can be described thus: Dextran sulfate sodium (DSS) mouse model of colitis, acute, 7 days DSS. The data set is classed as in vivo. As to conditions: RvE1-Mg-di-lysinate 15 ug/day or equimolar RvE1; for Colon Length / Normalized Spleen Weight: at sacrifice after 7 days DSS, once-daily oral gavage; for Disease Activity Index: study day 7, 2% DSS in drinking water 7 days, once-daily oral gavage from day 0. How it is done: A representative compound of Formula IV, RvE1-Mg-di-lysinate, was tested for efficacy in the dextran sulfate sodium (DSS) mouse model of colitis. In this model system, DSS exposure disrupts intestinal barrier function, stimulating local inflammation and inducing a colitis phenotype that mimics the clinical and histopathological features of IBD. See e.g., Laroui H et al. Dextran sodium sulfate (DSS) induces colitis in mice by forming nano-lipocomplexes with medium-chain-length fatty acids in the colon. PLoS ONE. 2012; 7 (3):e32084.
In the present study, 8-week old male C57Bl/6J mice were randomized by weight to three experimental groups and administered 2% DSS (w/v) in drinking water for 7 days. Beginning on study day 0, animals were administered either RvE-Mg-di-lysinate (RvE-Mg-Lys), an equimolar dose of RvE1, or vehicle via once-daily oral gavage. Disease activity was assessed daily using an established Disease Activity Index (DAI). See e.g., Morin C, Blier P U, Fortin S. MAG-EPA reduces severity of DSS-induced colitis in rats. Am J Physiol Gastrointest Liver Physiol. 2016; 310 (10):G808-21. All animals were sacrificed after 7 days of DSS exposure and colons and spleens were harvested. Gross morphological markers of disease activity, including colon length and normalized spleen weight (mg per g body weight) were assessed.
The model system described in Example 16 represents an acute model of human IBD wherein once daily RvE1-Mg-di-lysinate treatment at a dose of 15 ug/day was used in a prophylactic mode to mitigate the onset of intestinal and systemic inflammation induced by administration of DSS. This is relevant to patients in need of maintenance therapy to prevent the recurrence of active disease.

The subject of another data set is DSS-induced colitis. The experiment in a line: Sub-chronic two-cycle DSS colitis model, treatment from Day 20. In kind it is in vivo, mouse. The settings on record: for Colon Length / Disease Activity Index / Normalized Spleen Weight: Table 7, two cycles of DSS, once-daily oral gavage Day 20-27, 15 ug/day; for Reduction in DAI relative to Disease Control: 15 ug/day oral from Day 20. As for the experimental part:
as §1, §2

Data set [4] deals with two-cycle DSS colitis model. The experiment in a line: Two-cycle DSS colitis model, intracolonic versus oral administration. In kind it is in vivo, mouse. As to conditions: 15 ug/d, Day 20-27. From the text: To further test the biological effects on disease activity of luminal absorption of RvE1 administered orally in the form of RvE1-Mg-di-lysinate, we compared direct intracolonic administration (similar to an enema) with oral administration. Whereas we had previously established that oral administration of RvE1-Mg-di-lysinate results in systemic and local colonic exposure to RvE1, intracolonic administration results in predominantly local exposure. We again used the two-cycle DSS colitis model described above, with treatment initiated on Day 20 and continued for 7 days, with mice sacrificed at the end of Day 27. To facilitate intracolonic drug delivery, mice were anesthetized via exposure to 2-4% isoflurane gas. Intracolonic administration of RvE1-Mg-di-lysinate or vehicle was performed, with all animals inverted for 5 minutes following dose administration. Intracolonic administration of RvE1-Mg-di-lysinate was associated with a significant reduction in DAI (P<0.01), colon length (P<0.05), spleen weight (P<0.05) and histopathological disease activity (P<0.05).

Data set [5] in a line: Pharmacokinetic analysis of blood and colon tissue after intracolonic administration. The data set is classed as in vivo. The settings on record: mouse, 15 ug/day; for Tmax: read-out: RvE1 Tmax (converted). An excerpt: Pharmacokinetic analysis of blood and colon tissue samples were collected in the course of the intracolonic efficacy study and these confirmed that intracolonic administration of RvE1-Mg-di-lysinate is associated with predominantly local RvE1 exposure and minimal uptake into circulation.

Data set [6] is described as follows: Single oral dose pharmacokinetics: RvE1 exposure in blood plasma, small intestine tissue and colon tissue. The data set is classed as in vivo, mouse. As to conditions: for Timing of RvE1 Cmax: oral administration; for Cmax / Tmax / AUC(0-t): male, C57BL6/J, mouse, single oral dose 10 mg/kg RvE1-Mg-di-lysinate; for AUC(0-t): read-out: AUC0-8 of RvE1. How it is done: To establish the oral pharmacokinetics (PK) of RvE1-Mg-di-lysinate, a study was conducted to investigate RvE1 exposure in blood plasma, small intestine tissue, and colon tissue following a single oral dose of RvE1-Mg-di-lysinate (10 mg/kg) in 8-week old male C57BL6/J mice at various time points up to 8 hours post-dose. RvE1 levels were quantified in all tissue samples by HPLC-MS/MS. Pharmacokinetic curves for all tissue compartments are shown in FIG. 5 and a summary of pharmacokinetic metrics is shown in Table 9.

The mark [7] stands for this setting: at sacrifice Day 27, 15 ug/day oral, P<0.05.
The mark [8] stands for this setting: small intestine tissue, Small Intestine.

Structures can show the parent of a compound that is named as a salt. Where two headings read alike, the source gives them in different places.

`Nc1ccc(O)c(C(=O)O)c1` [Compound 5-ASA, 5-aminosalicylate, reference compound]: in data set [1], the “Colon Length” value amounted to 78.7 ± 6.7 mm, the “Normalized Spleen Weight” value came to 4.1 ± 1.3 mg/g BW, the “Total Histopath Score” value was found to be 16 ± 3.8 and the “Disease Activity Index” value worked out at 3.3 ± 0.8.
Turning to `CC[C@@H](O)/C=C/C=C\C[C@@H](O)/C=C/C=C/C=C\[C@@H](O)CCCC(=O)O` [RvE1 Ca di-lysinate, bis(RvE1) calcium L-lysinate salt], the “Degradation products by HPLC (chemical stability)” value (shortened to “Degradation products by HPLC”) in data set [2] (6 weeks) is reported as “No additional peaks corresponding to degradation products were observed”.
In the case of `CC[C@@H](O)/C=C/C=C\C[C@@H](O)/C=C/C=C/C=C\[C@@H](O)CCCC(=O)O` [RvE1 lys lys, RvE1 (L,L)-lysyllysine salt], the “Degradation products by HPLC” value in data set [2] (8 weeks) is “without degradation products”.
On to `CC[C@@H](O)/C=C/C=C\C[C@@H](O)/C=C/C=C/C=C\[C@@H](O)CCCC(=O)O` [RvE1, (5S,6Z,8E,10E,12R,14Z,16E,18R)-5,12,18-trihydroxyicosa-6,8,10,14,16-pentaenoic acid, reference compound], for which, in data set [3], the “Colon Length” value is 75.2 ± 7.6 mm, the “Normalized Spleen Weight” value is on record as 3.9 ± 0.7 mg/g BW and the “Disease Activity Index” value was found to be 5.6 ± 1.1. In the data set with DSS-induced colitis, the “Colon Length” value turned out to be 75.2 ± 7.6 mm, the “Disease Activity Index” value amounted to 5.6 ± 1.1 and the “Normalized Spleen Weight” value was found to be 3.9 ± 0.7 mg/g BW. Moreover, the “Degradation products by HPLC” value in data set [2] (8 weeks) is recorded as “extensively degraded”.
As for `CC[C@@H](O)/C=C/C=C\C[C@@H](O)/C=C/C=C/C=C\[C@@H](O)CCCC(=O)O` [RvE1-Mg-Lys, bis(RvE1) magnesium L-lysinate salt], the “Colon Length” value in data set [3] came to 77.1 ± 7.8 mm; in the data set on DSS-induced colitis it was 77.1 ± 7.8 mm; in data set [4] (Intracolonic) it was 83.1 ± 5.4 mm; in data set [4] (Oral) it was 82.7 ± 5.6 mm; in data set [1], 77.3 ± 3 mm. Moreover, the “Normalized Spleen Weight” value in data set [3] is listed as 3.6 ± 0.9 mg/g BW; with DSS-induced colitis, 3.6 ± 0.9 mg/g BW; in data set [4] (Intracolonic) it was 4.3 ± 0.9 mg/g BW; in data set [4] (Oral) it was 4.4 ± 1.4 mg/g BW; in data set [1], 6.6 ± 0.5 mg/g BW. Further, the “Disease Activity Index” value in data set [3] turned out to be 4.8 ± 1.3; in the data set on DSS-induced colitis, 4.8 ± 1.3; in data set [4] (Intracolonic) it was 2.6 ± 1.9; in data set [4] (Oral), 2.6 ± 1.8; in data set [1] it was 3.7 ± 1.6. In addition, the “Reduction in DAI relative to Disease Control” value with DSS-induced colitis (Day 21, P<0.01) was 24%; with DSS-induced colitis (Day 23, P<0.05), 18%. For the same compound, the “Histopathologic disease activity vs Disease Control (in words)” value in the data set with DSS-induced colitis (at sacrifice Day 27, 15 ug/day oral) is given as “non-significant reduction”. The “Colon length vs Disease Control (in words)” value in the data set on DSS-induced colitis (setting [7]) is “statistically significant increase”. Further, the “Normalized spleen weight vs Disease Control (in words)” value with DSS-induced colitis (setting [7]) is on record as “statistically significant reduction”. Besides, in the data set on DSS-induced colitis (study day 27, 15 ug/day oral Day 20-27), the “DAI relative to vehicle control (in words)” value is on record as “statistically significant reduction”. In addition, the “Total Histopath Score” value in data set [4] (Intracolonic) came to 15 ± 2.7; in data set [4] (Oral) it was 15.9 ± 6.0; in data set [1], 17.6 ± 2.7. In addition, the maximum concentration (Cmax) (commonly the highest concentration seen after dosing) in data set [5] (blood, read-out: Blood Cmax of RvE1) was 0.48 ng/mL; in data set [5] (colon tissue, read-out: Colon Cmax of RvE1), 2800 ng/g; in data set [6] (colon tissue, Colon), 19.8 ng/mL; in data set [6] (plasma, Blood), 471 ng/mL; in data set [6] (setting [8]), 346 ng/mL. Besides, the time to peak (Tmax) – broadly, the time at which the peak concentration occurs – in data set [5] (blood) was 15 min; in data set [5] (colon) it was 15 min; in data set [6] (colon tissue, Colon), 240 min; in data set [6] (plasma, Blood), 15 min; in data set [6] (setting [8]) it was 120 min. Also, the “Degradation products by HPLC” value in data set [2] (8 weeks, listed as RvE1 Mg di-lysinate) is on record as “did not exhibit any degradation products”. Moreover, in data set [6] (colon tissue, 15 minutes after oral dose), the “Share of total RvE1 detected in colon tissue contributed by the increase at the time of blood plasma Cmax” value is “less than 2%”. The “Timing of RvE1 Cmax” value came to 4 h in data set [6] (colon) and 2 h in data set [6] (small intestine). Moreover, the AUC(0-t) is 72.9 ng·h/mL in data set [6] (colon tissue, Colon); 128 ng·h/mL in data set [6] (plasma, Blood); 533 ng·h/mL in data set [6] (setting [8]).
